The test deals with U-87 MG. The test can be described thus: Down regulation of E2F1 gene expression in human U87MG cells at 16 uM incubated for 4 hrs followed by bromouridine addition during last 30 mins of incubation by TRIzol-reagent based Bru-Seq analysis. In kind it is functional, cell-based. Particulars: U-87MG ATCC.

SMILES strings stand for the structures. Activity calls are given as the source filed them. The calls are words filed in the database; no cut-off is given here.

With `COC(=O)c1cccc(/C=C/C(=O)c2cccc(O)c2)c1`, the result was Active.

Source of the values: ChEMBL document CHEMBL4390639, “Design, Synthesis, and Biological Evaluation of Novel Allosteric Protein Disulfide Isomerase Inhibitors” (J Med Chem, 2019).
